Experimental data: patent US8546389B2 (priority 2010, dated 2013)

Experiments:
1b (BK) NS5bΔ21 = 1b (BK) NS5bΔ21 (Hepatitis C virus genotype 1b (isolate BK) (HCV), UniProt P26663); test: HCV polymerase inhibition assay, genotype 1b; type: biochemical, HCV genotype 1b (BK); settings: 1b (BK) NS5bΔ21, 33P-GTP incorporation; read-out: 1b polymerase IC50 (range class)
Experimental: HCV polymerase reactions were carried out using a modified method of Howe et al., Antimicrobial Agents and Chemotherapy 2004 48(12): 4813-4821. Reactions contained a final concentration of, 0.5% DMSO, 50 nM, 1b (BK) NS5bΔ21, 20 mM Tris-HCl pH 7.5, 5 mM MgCl2, 5 mM MnCl2, 3 mM DTT, 0.05% BSA, 0.2 U/μL RNasin, 10 μg/mL Poly(rC) template, GTP (at Km) and 0.05 μCi/μL ^33P-GTP in a total reaction volume of 50 μL. Compounds were tested in a three fold dilution series, for example starting from 50 μM. Reactions were initiated with the addition of GTP and terminated after 1 hour with 50 μL ice cold 0.2 M EDTA. Terminated reactions were transferred to DEAE 96-well filter plates, unincorporated nucleotides washed from the filters and 50 μL scintillation fluid added prior to reading on a scintillation counter. Similarly, a genotype 3a (VRL-69) NS5bΔ21 polymerase enzyme assay was conducted using essentially the same method.
The compound concentration that reduced ^33P-GTP incorporation by 50% (IC50) was calculated using non-linear regression.

[1] = test system: genotype 1b (Con 1) subgenomic replicon cell line; test: HCV replicon assay, genotype 1b (Renilla luciferase); type: cell-based, HCV genotype 1b (Con 1); settings: Hepatitis C virus; genotype 1b replicon, 72 hours, luciferase; read-out: genotype 1b EC50 (range class)
Experimental: A genotype 1b (Con 1) subgenomic replicon cell line based on Blight et al., Science 2000 290: 1972-1974, modified to express a Renilla luciferase reporter gene was used to assess antiviral activity of test compounds. Cell cultures were maintained in a sub-confluent state in DMEM with glutamine, 10% heat-inactivated foetal bovine serum (FBS) and G418 (Geneticin®).
For assay, cells were seeded at a density of 7000 cells/well into 96 well tissue culture trays in culture media lacking G418. Compounds were tested in a three fold dilution series, for example starting from 50 uM. After 72 hours incubation at 37° C. and 5% CO2, Renilla luciferase activity was quantified via the Promega Renilla Luciferase or Renilla-Glo™ Luciferase Assay Systems (Promega corporation. The same method was employed for replicon assays using subgenomic genotype 1a and 2a replicon cell lines with a seeding cell density of 5000 cells/well for the 2a cell lines.
The compound concentration that reduced luciferase activity by 50% (EC50) was calculated using non-linear regression.

Chain of 1b (BK) NS5bΔ21 (P26663 2420-2989): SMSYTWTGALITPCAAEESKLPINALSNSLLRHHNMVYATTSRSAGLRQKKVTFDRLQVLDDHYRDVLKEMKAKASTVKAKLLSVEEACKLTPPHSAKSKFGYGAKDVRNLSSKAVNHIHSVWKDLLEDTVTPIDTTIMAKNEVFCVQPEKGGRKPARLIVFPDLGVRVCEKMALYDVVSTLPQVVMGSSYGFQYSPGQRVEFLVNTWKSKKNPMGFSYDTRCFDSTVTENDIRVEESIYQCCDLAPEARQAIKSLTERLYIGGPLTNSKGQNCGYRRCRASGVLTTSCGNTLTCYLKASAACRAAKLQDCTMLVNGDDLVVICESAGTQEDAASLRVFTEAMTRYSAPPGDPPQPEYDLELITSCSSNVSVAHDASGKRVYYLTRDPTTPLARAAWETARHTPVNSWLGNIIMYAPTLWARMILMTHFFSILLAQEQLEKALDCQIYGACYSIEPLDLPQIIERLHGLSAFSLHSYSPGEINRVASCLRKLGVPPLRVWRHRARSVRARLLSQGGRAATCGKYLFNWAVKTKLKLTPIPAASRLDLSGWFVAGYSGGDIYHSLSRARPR

Row | SMILES | IC50 (1b (BK) NS5bΔ21) [µM] | EC50 [1] [µM]
1 | CCOC(=O)CCCC(c1cc2nn(-c3ccc(C)cc3)c(C(=O)NC)c2cc1C1CC1)S(C)(=O)=O (racemic) [Compound 85, ethyl 5-[5-cyclopropyl-3-(methylcarbamoyl)-2-(4-methylphenyl)-2H-indazol-6-yl]-5-(methylsulfonyl)pentanoate] | 10 to 50 | 10 to 50
2 | CCC(c1cc2nn(-c3ccc(C)cc3)c(C(=O)NC)c2cc1C1CC1)S(C)(=O)=O (racemic) [Compound 86, 5-cyclopropyl-N-methyl-2-(4-methylphenyl)-6-[1-(methylsulfonyl)propyl]-2H-indazole-3-carboxamide] | 10 to 50 | 1 to 9.99
3 | CNC(=O)c1c2cc(C3CC3)c(N(CCCNC(=O)[C@@H]3CC(=O)N(C)C3)S(C)(=O)=O)cc2nn1-c1ccc(Br)cc1 (racemic) [Compound 182] | < 0.99 | 1 to 9.99
4 | CNC(=O)c1c2cc(C3CC3)c(N([C@H]3CCNC3)S(C)(=O)=O)cc2nn1-c1ccc(Br)cc1 (racemic) [Compound 195] | 1 to 9.99 | 10 to 50
5 | CC[C@H](c1cc2nn(-c3ccc(F)cc3)c(C(=O)NC)c2cc1C1CC1)S(C)(=O)=O (racemic) [Compound 240] | 10 to 50 | 10 to 50
6 | CNC(=O)c1c2cc(C3CC3)c([C@@H]3CN(Cc4ccccc4)C[C@H]3C(C)=O)cc2nn1-c1ccc(Br)cc1 (relative stereo) [Compound 80, trans-6-(4-acetyl-1-benzylpyrrolidin-3-yl)-2-(4-bromophenyl)-5-cyclopropyl-N-methyl-2H-indazole-3-carboxamide] | – | 1 to 9.99
7 | CNC(=O)c1c2cc(C3CC3)c(NS(C)(=O)=O)cc2nn1-c1ccc(Br)cc1 [Compound 1, 2-(4-bromophenyl)-5-cyclopropyl-N-methyl-6-[(methylsulfonyl)amino]-2H-indazole-3-carboxamide] | 10 to 50 | 1 to 9.99
8 | CNC(=O)c1c2cc(C3CC3)c(N(CCO)S(C)(=O)=O)cc2nn1-c1ccc(Oc2ccc(F)cc2)cc1 [Compound 3, 5-cyclopropyl-2-[4-(4-fluorophenoxy)phenyl]-6-[(2-hydroxyethyl)-(methylsulfonyl)amino]-N-methyl-2H-indazole-3-carboxamide] | 1 to 9.99 | < 0.99
9 | CNC(=O)c1c2cc(C3CC3)c(N(CCNC(=O)Cc3nn[nH]n3)S(C)(=O)=O)cc2nn1-c1ccc(Br)cc1 [Compound 8, 2-(4-bromophenyl)-5-cyclopropyl-N-methyl-6-[(methylsulfonyl){2-[(2H-tetrazol-5-ylacetyl)amino]ethyl}amino]-2H-indazole-3-carboxamide] | < 0.99 | 10 to 50
10 | CNC(=O)c1c2cc(OC)c(N(CCO)S(C)(=O)=O)cc2nn1-c1ccc(F)cc1 [Compound 12, 2-(4-fluorophenyl)-6-[2-hydroxyethyl(methylsulfonyl)amino]-5-methoxy-N-methyl-indazole-3-carboxamide] | – | 10 to 50
11 | CNC(=O)c1c2cc(C3CC3)c(N(CCO)S(C)(=O)=O)cc2nn1-c1ccc(F)cc1 [Compound 14, 5-cyclopropyl-2-(4-fluorophenyl)-6-[(2-hydroxyethyl)(methylsulfonyl)amino]-N-methyl-2H-indazole-3-carboxamide] | 10 to 50 | 1 to 9.99
12 | CNC(=O)c1c2cc(C3CC3)c(N(CCOC(=O)c3ccccc3C(=O)O)S(C)(=O)=O)cc2nn1-c1ccc(F)cc1 [Compound 15, 2-[(2-{[5-cyclopropyl-2-(4-fluorophenyl)-3-(methylcarbamoyl)-2H-indazol-6-yl](methylsulfonyl)amino}ethoxy)carbonyl]benzoic acid] | 1 to 9.99 | –
13 | CNC(=O)c1c2cc(C3CC3)c(N(CCO)S(C)(=O)=O)cc2nn1-c1ccc(Oc2ccccc2F)cc1 [Compound 18] | 1 to 9.99 | 1 to 9.99
14 | CNC(=O)c1c2cc(C3CC3)c(N(CCO)S(C)(=O)=O)cc2nn1-c1ccc(Nc2ccc(F)cc2)cc1 [Compound 19] | < 0.99 | < 0.99
15 | CCN(c1cc2nn(-c3ccc(Br)cc3)c(C(=O)NC)c2cc1C1CC1)S(C)(=O)=O [Compound 20] | < 0.99 | < 0.99
16 | CCN(c1cc2nn(-c3ccc(Oc4ccc(F)cc4)cc3)c(C(=O)NC)c2cc1C1CC1)S(C)(=O)=O [Compound 23] | < 0.99 | < 0.99
17 | CNC(=O)c1c2cc(C3CC3)c(N(CCO)S(C)(=O)=O)cc2nn1-c1ccc(Br)cc1 [Compound 24] | < 0.99 | < 0.99
18 | CCN(c1cc2nn(-c3ccc(Nc4ccccc4F)cc3)c(C(=O)NC)c2cc1C1CC1)S(C)(=O)=O [Compound 25] | < 0.99 | < 0.99
19 | CNC(=O)c1c2cc(C3CC3)c(N(CCO)S(C)(=O)=O)cc2nn1-c1ccc(Nc2ccccc2F)cc1 [Compound 26] | < 0.99 | < 0.99

Row | SMILES | IC50 (1b (BK) NS5bΔ21) [µM] | EC50 [1] [µM]
20 | CNC(=O)c1c2cc(C3CC3)c(N(CCO)S(C)(=O)=O)cc2nn1-c1ccc(Nc2ccccc2)cc1 [Compound 27] | < 0.99 | < 0.99
21 | CNC(=O)c1c2cc(C3CC3)c(N(CCCO)S(C)(=O)=O)cc2nn1-c1ccc(Oc2ccccc2F)cc1 [Compound 29] | < 0.99 | < 0.99
22 | CNC(=O)c1c2cc(C3CC3)c(N(CCCO)S(C)(=O)=O)cc2nn1-c1ccc(Oc2ccc(F)cc2)cc1 [Compound 30] | < 0.99 | < 0.99
23 | CNC(=O)c1c2cc(C3CC3)c(N(CCNC(=O)Cc3nn[nH]n3)S(C)(=O)=O)cc2nn1-c1ccc(Nc2ccc(F)cc2)cc1 [Compound 31] | < 0.99 | –
24 | CNC(=O)c1c2cc(C3CC3)c(N(CCO)S(C)(=O)=O)cc2nn1-c1ccc(Nc2cccc(O)c2)cc1 [Compound 33] | 10 to 50 | –
25 | CNC(=O)c1c2cc(C3CC3)c(N(CCO)S(C)(=O)=O)cc2nn1-c1ccc(Oc2ccccc2)cc1 [Compound 35] | 1 to 9.99 | < 0.99
26 | CNC(=O)c1c2cc(C3CC3)c(N(CCNC(C)=O)S(C)(=O)=O)cc2nn1-c1ccc(Oc2ccc(F)cc2)cc1 [Compound 36] | 1 to 9.99 | 1 to 9.99
27 | CNC(=O)c1c2cc(C3CC3)c(N(CCNC(C)=O)S(C)(=O)=O)cc2nn1-c1ccc(Br)cc1 [Compound 37] | 1 to 9.99 | 1 to 9.99
28 | CCN(c1cc2nn(-c3ccc(NC(C)C)cc3)c(C(=O)NC)c2cc1C1CC1)S(C)(=O)=O [Compound 38] | 1 to 9.99 | < 0.99
29 | CCN(C(C)=O)c1cc2nn(-c3ccc(Br)cc3)c(C(=O)NC)c2cc1C1CC1 [Compound 48, 6-[Acetyl(ethyl)amino]-2-(4-bromophenyl)-5-cyclopropyl-N-methyl-2H-indazole-3-carboxamide] | 10 to 50 | 1 to 9.99
30 | CNC(=O)c1c2cc(C3CC3)c(N(CCCO)S(C)(=O)=O)cc2nn1-c1ccc(C(C)C)cc1 [Compound 50, 5-cyclopropyl-6-[(3-hydroxypropyl)(methylsulfonyl)amino]-N-methyl-2-[4-(propan-2-yl)-phenyl]-2H-indazole-3-carboxamide] | 1 to 9.99 | 1 to 9.99
31 | CCn1ccnc1-c1cc2nn(-c3ccc(F)cc3)c(C(=O)NC)c2cc1C1CC1 [Compound 84, 5-Cyclopropyl-6-(1-ethyl-1H-imidazol-2-yl)-2-(4-fluorophenyl)-N-methyl-2H-indazole-3-carboxamide] | – | 10 to 50
32 | CNC(=O)c1c2cc(C3CC3)c(N3CCNS3(=O)=O)cc2nn1-c1ccc(Br)cc1 [Compound 103, 2-(4-Bromophenyl)-5-cyclopropyl-6-(1,1-dioxido-1,2,5-thiadiazolidin-2-yl)-N-methyl-2H-indazole-3-carboxamide] | 1 to 9.99 | –
33 | CCN(c1cc2nn(-c3ccc(OCC(C)C)cc3)c(C(=O)NC)c2cc1C1CC1)S(C)(=O)=O [Compound 121] | 1 to 9.99 | –
34 | CCN(c1cc2nn(-c3ccc(F)cc3)c(C(=O)NC)c2cc1C(C)C)S(C)(=O)=O [Compound 130] | – | 10 to 50
35 | CCN(c1ccc2c(C(=O)NC)n(-c3ccc(F)cc3)nc2c1)S(C)(=O)=O [Compound 137] | 10 to 50 | –
36 | CNC(=O)c1c2cc(C3CC3)c(-c3cncn3C)cc2nn1-c1ccc(F)cc1 [Compound 158] | 10 to 50 | –
37 | CNC(=O)c1c2cc(C3CC3)c(-c3ncc(CO)s3)cc2nn1-c1ccc(F)cc1 [Compound 159] | – | 10 to 50
38 | CCN(C)S(=O)(=O)c1cc2nn(-c3ccc(F)cc3)c(C(=O)NC)c2cc1C1CC1 [Compound 227] | – | 10 to 50
